The results in this text go back to ChEMBL document CHEMBL1129158, “Marine sponge bis(indole) alkaloids that displace ligand binding to 1 adrenergic receptors” (Bioorg Med Chem Lett, 1996).

Assay [1] has as its target T1, Alpha-1B adrenergic receptor (Homo sapiens, UniProt P35368).
T1 sequence (P35368 whole entry): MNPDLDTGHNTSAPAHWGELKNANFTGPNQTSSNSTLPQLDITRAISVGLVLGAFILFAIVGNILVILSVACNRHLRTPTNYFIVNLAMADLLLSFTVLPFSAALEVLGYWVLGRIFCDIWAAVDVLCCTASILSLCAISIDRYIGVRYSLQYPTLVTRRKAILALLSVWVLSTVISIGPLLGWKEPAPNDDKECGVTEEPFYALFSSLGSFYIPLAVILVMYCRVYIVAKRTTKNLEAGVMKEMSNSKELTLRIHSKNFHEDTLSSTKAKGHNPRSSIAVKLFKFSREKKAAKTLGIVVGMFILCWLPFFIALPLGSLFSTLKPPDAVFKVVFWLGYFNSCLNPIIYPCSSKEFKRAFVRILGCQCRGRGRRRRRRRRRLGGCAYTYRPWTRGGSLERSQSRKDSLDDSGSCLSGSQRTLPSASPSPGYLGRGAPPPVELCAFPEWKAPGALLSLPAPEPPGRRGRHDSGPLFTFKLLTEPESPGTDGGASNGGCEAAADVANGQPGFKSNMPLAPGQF
In words: Binding affinity against human Alpha-1b adrenergic receptor.

For assay [2], the target named is T2, Alpha-1A adrenergic receptor (Homo sapiens, UniProt P35348).
T2 sequence (P35348 whole entry): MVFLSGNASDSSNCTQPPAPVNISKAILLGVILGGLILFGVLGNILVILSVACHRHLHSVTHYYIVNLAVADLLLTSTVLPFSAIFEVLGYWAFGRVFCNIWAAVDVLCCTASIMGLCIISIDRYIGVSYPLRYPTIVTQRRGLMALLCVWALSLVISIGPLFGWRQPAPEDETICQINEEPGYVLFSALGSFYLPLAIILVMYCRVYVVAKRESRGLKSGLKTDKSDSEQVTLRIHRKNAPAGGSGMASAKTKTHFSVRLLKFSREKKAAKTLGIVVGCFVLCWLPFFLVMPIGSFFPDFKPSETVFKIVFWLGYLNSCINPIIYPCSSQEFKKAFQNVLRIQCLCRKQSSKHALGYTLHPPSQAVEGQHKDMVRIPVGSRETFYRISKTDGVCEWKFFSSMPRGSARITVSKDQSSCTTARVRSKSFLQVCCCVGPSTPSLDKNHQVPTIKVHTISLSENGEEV
In words: Compound was tested for its binding affinity towards CHO cells expressing human Alpha-1a adrenergic receptor by displacing [125I]HEAT (2-beta-(4-hydroxyphenyl)-ethylaminomethyltetralone). Type of assay: cell-based.

Assay [3] has as its target Adrenergic receptors; alpha-1 A & B (Homo sapiens) (UniProt P35348+P35368). In words: Selectivity is determined from the ratio of binding affinities of alpha 1a adrenoceptor to alpha 1b adrenoceptor. Type of assay: protein assay.
Assay [4] concerns the target T3, Alpha-1A adrenergic receptor (Rattus norvegicus, UniProt P43140).
T3 sequence (P43140 whole entry): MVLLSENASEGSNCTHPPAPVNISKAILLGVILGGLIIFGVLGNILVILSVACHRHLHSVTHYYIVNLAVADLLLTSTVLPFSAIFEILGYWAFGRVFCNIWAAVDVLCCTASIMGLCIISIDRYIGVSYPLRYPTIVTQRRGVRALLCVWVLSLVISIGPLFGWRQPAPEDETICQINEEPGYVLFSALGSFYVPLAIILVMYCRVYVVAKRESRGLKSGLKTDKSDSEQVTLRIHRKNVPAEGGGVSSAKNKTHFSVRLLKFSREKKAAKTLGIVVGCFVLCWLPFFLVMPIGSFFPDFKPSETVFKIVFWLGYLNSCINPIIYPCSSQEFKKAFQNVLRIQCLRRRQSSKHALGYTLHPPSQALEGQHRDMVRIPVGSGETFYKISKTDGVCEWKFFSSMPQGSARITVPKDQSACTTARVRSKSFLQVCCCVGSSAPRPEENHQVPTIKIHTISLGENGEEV
The experiment in a line: Binding affinity was determined against Alpha-1a adrenergic receptor.

The target of assay [5] is Alpha-1B adrenergic receptor (Mesocricetus auratus, UniProt P18841). In words: Compound was tested for its binding affinity towards Rat-1 cells stably expressing hamster alpha-1b adrenergic receptor by displacing [125I]HEAT (2-beta-(4-hydroxyphenyl)-ethylaminomethyltetralone). Type of assay: cell-based.
Chain of Alpha-1B adrenergic receptor (Mesocricetus auratus, UniProt P18841) (P18841 whole entry, looked up): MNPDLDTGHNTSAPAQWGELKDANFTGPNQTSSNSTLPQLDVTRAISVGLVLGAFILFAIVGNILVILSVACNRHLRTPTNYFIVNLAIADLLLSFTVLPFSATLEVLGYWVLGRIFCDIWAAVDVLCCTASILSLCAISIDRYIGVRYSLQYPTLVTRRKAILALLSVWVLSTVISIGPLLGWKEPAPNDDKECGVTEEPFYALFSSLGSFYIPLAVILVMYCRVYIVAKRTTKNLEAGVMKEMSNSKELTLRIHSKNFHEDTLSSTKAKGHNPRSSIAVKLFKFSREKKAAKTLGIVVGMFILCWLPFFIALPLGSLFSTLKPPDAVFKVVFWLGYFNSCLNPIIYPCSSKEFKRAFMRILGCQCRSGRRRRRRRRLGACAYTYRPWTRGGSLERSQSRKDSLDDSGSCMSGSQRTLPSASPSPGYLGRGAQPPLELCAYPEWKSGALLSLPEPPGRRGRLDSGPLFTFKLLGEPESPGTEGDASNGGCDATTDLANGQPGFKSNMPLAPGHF

In general, Ki refers to the dissociation constant of the complex between target and ligand, obtained from inhibition or displacement. As for `CN1C[C@H](c2c[nH]c3c(Br)c(Br)cc(O)c23)NC[C@H]1c1c[nH]c2cc(Br)ccc12`, the values for the inhibition constant (Ki) in assay [1], in assay [2] and in assay [4] were 78 nM, 140 nM and 138 nM, respectively. The Selectivity in assay [3] came to 1.8.

The compound `O=C(c1nc(-c2c[nH]c3cc(Br)ccc23)c[nH]1)c1c[nH]c2cc(O)ccc12` [BROMOTOPSENTIN] displayed a Ki in assay [2] of 12600 nM. Further, the Selectivity in assay [3] is 17.

The compound `Brc1ccc2c(-c3c[nH]c(-c4c[nH]c5cc(Br)ccc45)n3)c[nH]c2c1` [NORTOPSENTIN A] yielded a Ki in assay [2] of 2140 nM. Further, in assay [3], the Selectivity was 4.1.

As to `Brc1ccc2c(-c3nc(-c4c[nH]c5ccccc45)c[nH]3)c[nH]c2c1` [NORTOPSENTIN B], the affinity in assay [2] corresponds to a Ki of 770 nM. In assay [3], the Selectivity was 5.9.

As for `Brc1ccc2c(-c3c[nH]c(-c4c[nH]c5ccccc45)n3)c[nH]c2c1` [NORTOPSENTIN C], in assay [2], the inhibition constant (Ki) is 550 nM. The Selectivity in assay [3] worked out at 3.2.

`O=C(c1nc(-c2c[nH]c3ccccc23)c[nH]1)c1c[nH]c2cc(O)ccc12` [TOPSENTIN] gave a Ki in assay [5] of 4740 nM. Besides, the Selectivity in assay [3] is 4.1.
